From patent publication US6525001B1, “Substituted pyrimidine and pyridine herbicides” (Mid-American Commercialization Corporation, priority 1997, dated 2003)

Experiments:
Test in all cases: Test B pre-/postemergence
Assay type in all cases: in vivo
Set-up in all cases: key: 0 is no effect; 10 is complete control
[1] = tested on: giant foxtail (Setaria faberii)
How it was run: (§1)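 Response scores run from 0, meaning no effect, to 10, meaning complete control, assigned by eye relative to controls twelve to sixteen days after spraying. Treatment was both preemergence on planted seed and postemergence on plants at the 1- to 4-leaf stage.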

[2] = tested on: pigweed (Amaranthus retroflexus)
How it was run: as §1

[3] = tested on: soybean (Glycine max)
How it was run: as §1

[4] = tested on: crabgrass (Digitaria sanguinalis)
How it was run: as §1

[5] = tested on: wheat (Triticum aestivum)
How it was run: as §1

[6] = tested on: purple nutsedge (Cyperus rotundus)
How it was run: as §1

[7] = tested on: cocklebur (Xanthium strumarium)
How it was run: as §1

[8] = tested on: momingglory (Ipomoea hederacea)
How it was run: as §1

[9] = tested on: velvetleaf (Abutilon theophrasti)
How it was run: as §1

[10] = tested on: wild oat (Avena fatua)
How it was run: as §1

[11] = tested on: rape (Brassica napus)
How it was run: as §1

[12] = tested on: corn (Zea mays)
How it was run: as §1

[13] = tested on: sugar beet (Beta vulgaris)
How it was run: as §1

[14] = tested on: bedstraw (Galium aparine)
How it was run: as §1

Cc1cnc(-c2ccc(C(F)(F)F)cc2)nc1Cn1cc(I)cn1 [Compound 12]
8: Plant response rating, Crabgrass ([4]; Rate 250 g/ha, Preemergence) | Plant response rating, Cocklebur ([7]; Rate 125 g/ha, Postemergence) | Plant response rating, Cocklebur ([7]; Rate 250 g/ha, Postemergence) | Plant response rating, Cocklebur ([7]; Rate 500 g/ha, Postemergence) | Plant response rating, Velvetleaf ([9]; Rate 250 g/ha, Postemergence) | Plant response rating, Velvetleaf ([9]; Rate 500 g/ha, Postemergence) | Plant response rating, Sugarbeets ([13]; Rate 125 g/ha, Postemergence) | Sugarbeets plant response rating ([13]; Rate 125 g/ha, Preemergence) | Plant response rating, Sugarbeets ([13]; Rate 250 g/ha, Postemergence) | Plant response rating, Bedstraw ([14]; Rate 500 g/ha, Preemergence)
2: Plant response rating, Giant foxtail ([1]; Rate 62 g/ha, Postemergence) | Soybean plant response rating ([3]; Rate 125 g/ha, Preemergence) | Plant response rating, Crabgrass ([4]; Rate 62 g/ha, Postemergence) | Plant response rating, Cocklebur ([7]; Rate 250 g/ha, Preemergence) | Wild oats plant response rating ([10]; Rate 125 g/ha, Preemergence) | Plant response rating, Corn ([12]; Rate 62 g/ha, Postemergence) | Plant response rating, Corn ([12]; Rate 125 g/ha, Postemergence) | Plant response rating, Corn ([12]; Rate 500 g/ha, Preemergence) | Bedstraw plant response rating ([14]; Rate 62 g/ha, Preemergence)
7: Giant foxtail plant response rating ([1]; Rate 125 g/ha, Preemergence) | Redroot pigweed plant response rating ([2]; Rate 62 g/ha, Preemergence) | Plant response rating, Velvetleaf ([9]; Rate 62 g/ha, Postemergence) | Plant response rating, Velvetleaf ([9]; Rate 125 g/ha, Postemergence) | Plant response rating, Rape ([11]; Rate 62 g/ha, Postemergence) | Plant response rating, Sugarbeets ([13]; Rate 62 g/ha, Postemergence) | Plant response rating, Bedstraw ([14]; Rate 62 g/ha, Postemergence)
9: Plant response rating, Giant foxtail ([1]; Rate 250 g/ha, Preemergence) | Plant response rating, Giant foxtail ([1]; Rate 500 g/ha, Preemergence) | Plant response rating, Redroot pigweed ([2]; Rate 62 g/ha, Postemergence) | Plant response rating, Redroot pigweed ([2]; Rate 125 g/ha, Postemergence) | Redroot pigweed plant response rating ([2]; Rate 125 g/ha, Preemergence) | Plant response rating, Redroot pigweed ([2]; Rate 250 g/ha, Postemergence) | Plant response rating, Redroot pigweed ([2]; Rate 250 g/ha, Preemergence) | Plant response rating, Redroot pigweed ([2]; Rate 500 g/ha, Postemergence) | Plant response rating, Redroot pigweed ([2]; Rate 500 g/ha, Preemergence) | Plant response rating, Morningglory ([8]; Rate 62 g/ha, Postemergence) | Plant response rating, Morningglory ([8]; Rate 125 g/ha, Postemergence) | Plant response rating, Morningglory ([8]; Rate 250 g/ha, Postemergence) | Plant response rating, Morningglory ([8]; Rate 500 g/ha, Postemergence) | Plant response rating, Rape ([11]; Rate 125 g/ha, Postemergence) | Plant response rating, Rape ([11]; Rate 250 g/ha, Postemergence) | Plant response rating, Rape ([11]; Rate 500 g/ha, Postemergence) | Plant response rating, Sugarbeets ([13]; Rate 500 g/ha, Postemergence) | Plant response rating, Bedstraw ([14]; Rate 125 g/ha, Postemergence)
4: Plant response rating, Giant foxtail ([1]; Rate 500 g/ha, Postemergence) | Crabgrass plant response rating ([4]; Rate 62 g/ha, Preemergence) | Crabgrass plant response rating ([4]; Rate 125 g/ha, Preemergence) | Plant response rating, Wheat ([5]; Rate 500 g/ha, Postemergence) | Morningglory plant response rating ([8]; Rate 62 g/ha, Preemergence) | Velvetleaf plant response rating ([9]; Rate 125 g/ha, Preemergence) | Plant response rating, Velvetleaf ([9]; Rate 250 g/ha, Preemergence) | Plant response rating, Velvetleaf ([9]; Rate 500 g/ha, Preemergence) | Plant response rating, Wild oats ([10]; Rate 250 g/ha, Postemergence) | Plant response rating, Wild oats ([10]; Rate 250 g/ha, Preemergence) | Plant response rating, Wild oats ([10]; Rate 500 g/ha, Preemergence) | Bedstraw plant response rating ([14]; Rate 125 g/ha, Preemergence) | Plant response rating, Bedstraw ([14]; Rate 250 g/ha, Preemergence)
5: Giant foxtail plant response rating ([1]; Rate 62 g/ha, Preemergence) | Plant response rating, Soybean ([3]; Rate 125 g/ha, Postemergence) | Plant response rating, Soybean ([3]; Rate 250 g/ha, Postemergence) | Plant response rating, Soybean ([3]; Rate 500 g/ha, Postemergence) | Plant response rating, Wild oats ([10]; Rate 500 g/ha, Postemergence) | Rape plant response rating ([11]; Rate 125 g/ha, Preemergence)
1: Wild oats plant response rating ([10]; Rate 62 g/ha, Preemergence)
6: Morningglory plant response rating ([8]; Rate 125 g/ha, Preemergence) | Plant response rating, Rape ([11]; Rate 250 g/ha, Preemergence) | Plant response rating, Rape ([11]; Rate 500 g/ha, Preemergence) | Sugarbeets plant response rating ([13]; Rate 62 g/ha, Preemergence)
10: Plant response rating, Crabgrass ([4]; Rate 500 g/ha, Preemergence) | Plant response rating, Morningglory ([8]; Rate 250 g/ha, Preemergence) | Plant response rating, Morningglory ([8]; Rate 500 g/ha, Preemergence) | Plant response rating, Sugarbeets ([13]; Rate 250 g/ha, Preemergence) | Plant response rating, Sugarbeets ([13]; Rate 500 g/ha, Preemergence) | Plant response rating, Bedstraw ([14]; Rate 250 g/ha, Postemergence) | Plant response rating, Bedstraw ([14]; Rate 500 g/ha, Postemergence)
0: Soybean plant response rating ([3]; Rate 62 g/ha, Preemergence) | Wheat plant response rating ([5]; Rate 62 g/ha, Preemergence) | Wheat plant response rating ([5]; Rate 125 g/ha, Preemergence) | Plant response rating, Wheat ([5]; Rate 250 g/ha, Preemergence) | Plant response rating, Wheat ([5]; Rate 500 g/ha, Preemergence) | Plant response rating, Nutsedge ([6]; Rate 62 g/ha, Postemergence) | Nutsedge plant response rating ([6]; Rate 62 g/ha, Preemergence) | Plant response rating, Nutsedge ([6]; Rate 125 g/ha, Postemergence) | Nutsedge plant response rating ([6]; Rate 125 g/ha, Preemergence) | Plant response rating, Nutsedge ([6]; Rate 250 g/ha, Postemergence) | Plant response rating, Nutsedge ([6]; Rate 250 g/ha, Preemergence) | Plant response rating, Nutsedge ([6]; Rate 500 g/ha, Postemergence) | Plant response rating, Nutsedge ([6]; Rate 500 g/ha, Preemergence) | Cocklebur plant response rating ([7]; Rate 62 g/ha, Preemergence) | Rape plant response rating ([11]; Rate 62 g/ha, Preemergence) | Corn plant response rating ([12]; Rate 62 g/ha, Preemergence) | Corn plant response rating ([12]; Rate 125 g/ha, Preemergence) | Plant response rating, Corn ([12]; Rate 250 g/ha, Preemergence)
3: Plant response rating, Giant foxtail ([1]; Rate 125 g/ha, Postemergence) | Plant response rating, Giant foxtail ([1]; Rate 250 g/ha, Postemergence) | Plant response rating, Soybean ([3]; Rate 62 g/ha, Postemergence) | Plant response rating, Soybean ([3]; Rate 250 g/ha, Preemergence) | Plant response rating, Soybean ([3]; Rate 500 g/ha, Preemergence) | Plant response rating, Crabgrass ([4]; Rate 125 g/ha, Postemergence) | Plant response rating, Crabgrass ([4]; Rate 250 g/ha, Postemergence) | Plant response rating, Crabgrass ([4]; Rate 500 g/ha, Postemergence) | Plant response rating, Wheat ([5]; Rate 62 g/ha, Postemergence) | Plant response rating, Wheat ([5]; Rate 125 g/ha, Postemergence) | Plant response rating, Wheat ([5]; Rate 250 g/ha, Postemergence) | Plant response rating, Cocklebur ([7]; Rate 500 g/ha, Preemergence) | Velvetleaf plant response rating ([9]; Rate 62 g/ha, Preemergence) | Plant response rating, Wild oats ([10]; Rate 62 g/ha, Postemergence) | Plant response rating, Wild oats ([10]; Rate 125 g/ha, Postemergence) | Plant response rating, Corn ([12]; Rate 250 g/ha, Postemergence) | Plant response rating, Corn ([12]; Rate 500 g/ha, Postemergence)
